Results from patent publication US5278308A, “Iodine derivatives of tetrabenazine” (The Trustees of The University of Pennsylvania, priority 1992, dated 1994).
Like-named read-outs stand apart in the source and are kept apart here.

Assays:
[1] = Biodistribution in rats (iv injection); type: in vivo; settings: rat; for Blood uptake (blood assumed 7% of body weight) / Heart uptake / Kidney uptake / Liver uptake / Lung uptake / Muscle uptake (muscle assumed 40% of body weight) / Skin uptake / Spleen uptake / Thyroid uptake / Brain uptake: iv
Experimental: While under ether anesthesia, each rat was injected in the femoral vein with 0.2 mL saline solution containing [^123 I]I-TBZ (1-5uCi) either racemic mixture, peak-A or peak-B. The rats were sacrificed at various time points postinjection by cardiac excision. The tissues were weighed and the radioactivity was measured with a Canberra gamma counter (Model 5000). The percent dose per organ was calculated by a comparison of the tissue counts to suitably diluted aliquots of the injected material. Total activities of blood and muscle were calculated assuming that they were 7% and 40% of total body weight, respectively Results are presented in Tables 3, 4A and 4B.

[2] = Regional brain distribution in rats (dissection, iv injection); type: in vivo; settings: for Regional brain uptake, cerebellum / Regional brain uptake, cortex / Regional brain uptake, hippocampus / Regional brain uptake, striatum / tissue uptake at 2 min / tissue uptake at 0.5 h / tissue uptake at 4 h / tissue uptake at 6 h / tissue uptake at 16 h: rat; for tissue uptake at 0.5 h: 30 min; for tissue uptake at 4 h: 240 min; for tissue uptake at 6 h: 2 rats only
Experimental: Regional brain distribution of [^123 I]I-TBZ (with either a racemic mixture, peak A or B) in rats was obtained after an iv injection. By dissecting, weighing and counting samples from different brain regions (cortex, striatum, hippocampus and cerebellum), % dose/gram of the samples was calculated by comparing the sample counts with the counts of the diluted initial dose. The ratio of uptake in each region was obtained by dividing % dose/gram of each region with that of the cerebellum. The effect of tetrahydrobenazine on the uptake of peak A or peak B was investigated by pretreating the rats with the TBZ 3 mg/rat at 3 min before iv injection of [^123 I]I-TBZ. At 20 min. post injection the rats were dissected and the regional brain dissection was carried out as above.

[3] = Stability of radiolabeled compound at room temperature; type: physicochemical
Experimental: The […] labeled iodovinYl-TBZ derivative ([^123 I]-TBZ, 2b) was prepared by an iododestannylation reaction. Aqueous hydrogen peroxide (1 mg/mL EtOH), 200 uL of 0.1 N HCl and 5 mCi [^123 I]sodium iodide were combined in a sealed vial. The reaction was allowed to proceed at room temperature for 20 min, after which it was terminated by addition of 0.1 mL sodium bisulfite (300 mg/ml). The reaction was then neutralized with NaHCO3 and extracted with ethyl acetate (3×1 mL). The combined organic layers were dried under nitrogen and the desired product was purified through HPLC on a reverse phase column (PRP-1, Hamilton) eluting with a isocratic solvent of 90% acetonitrile-10% buffer (5 mM 3,3'-dimethylglutaric acid, pH 7.0) and a flow rate of 1 mL/min. The radiochemical purity was analyzed by the above chromatographic system and the purified [^123 I] product (yield 50%, purity >98%) was obtained for animal experiments. The radiolabeled [^123 I]I-TBZ is stable at room temperature for up to 15 h.

[4] = system: monoamine uptake-storage mechanism of amine granules in the synapse; settings: in vivo; cited from earlier work
[5] = up to 300 mg daily, several trials; cited from earlier work
[6] = system: monoamine transporter of chromaffin granules and CNS synaptic vesicles; settings: cited from earlier work
[7] = cerebellum, read-out: Regional brain uptake, cerebellum
[8] = cortex, read-out: Regional brain uptake, cortex
[9] = hippocampus, read-out: Regional brain uptake, hippocampus
[10] = striatum, read-out: Regional brain uptake, striatum

SMILES: COc1cc2c(cc1OC)C1CC(O)(C=C[123I])C(CC(C)C)CN1CC2 (racemic) [Compound 2b]
- Crossing of the intact blood brain barrier and localization in the brain (in words) [1]: can cross the intact blood brain barrier and localize in the brain
- Blood uptake (blood assumed 7% of body weight) ([1]; 2 min): 5.99 ± 2.54 % Dose/organ
- Heart uptake ([1]; 2 min): 1.33 ± 0.19 % Dose/organ
- Kidney uptake ([1]; 2 min): 4.18 ± 0.46 % Dose/organ
- Liver uptake ([1]; 2 min): 11.1 ± 1.22 % Dose/organ
- Lung uptake ([1]; 2 min): 4.44 ± 1.44 % Dose/organ
- Muscle uptake (muscle assumed 40% of body weight) ([1]; 2 min): 6.93 ± 0.12 % Dose/organ
- Skin uptake ([1]; 2 min): 4.08 ± 2.32 % Dose/organ
- Spleen uptake ([1]; 2 min): 0.28 ± 0.04 % Dose/organ
- Thyroid uptake ([1]; 2 min): 0.06 ± 0.02 % Dose/organ
- Brain uptake ([1]; 2 min, listed as [^123 I]I-TBZ (2b)): 0.92 % Dose/organ
- Brain uptake ([1]; 2 min, listed as [^123 I]I-TBZ racemic mixture): 0.92 ± 0.13 % Dose/organ
- Blood uptake (blood assumed 7% of body weight) ([1]; 30 min): 1.84 ± 0.17 % Dose/organ
- Heart uptake ([1]; 30 min): 0.34 ± 0.02 % Dose/organ
- Kidney uptake ([1]; 30 min): 1.55 ± 0.21 % Dose/organ
- Liver uptake ([1]; 30 min): 9.75 ± 1.83 % Dose/organ
- Lung uptake ([1]; 30 min): 1.02 ± 0.14 % Dose/organ
- Muscle uptake (muscle assumed 40% of body weight) ([1]; 30 min): 20.18 ± 2.19 % Dose/organ
- Skin uptake ([1]; 30 min): 11.53 ± 2.54 % Dose/organ
- Spleen uptake ([1]; 30 min): 0.29 ± 0.03 % Dose/organ
- Thyroid uptake ([1]; 30 min): 0.03 ± 0.005 % Dose/organ
- Brain uptake ([1]; 30 min, listed as [^123 I]I-TBZ (2b)): 0.36 % Dose/organ
- Brain uptake ([1]; 30 min, listed as [^123 I]I-TBZ racemic mixture): 0.36 ± 0.05 % Dose/organ
- Blood uptake (blood assumed 7% of body weight) ([1]; 60 min): 2.46 ± 0.56 % Dose/organ
- Brain uptake ([1]; 60 min): 0.28 ± 0.05 % Dose/organ
- Heart uptake ([1]; 60 min): 0.35 ± 0.06 % Dose/organ
- Kidney uptake ([1]; 60 min): 1.47 ± 0.22 % Dose/organ
- Liver uptake ([1]; 60 min): 8.57 ± 0.41 % Dose/organ
- Lung uptake ([1]; 60 min): 1.47 ± 0.64 % Dose/organ
- Muscle uptake (muscle assumed 40% of body weight) ([1]; 60 min): 14.9 ± 1.77 % Dose/organ
- Skin uptake ([1]; 60 min): 6.39 ± 2.37 % Dose/organ
- Spleen uptake ([1]; 60 min): 0.37 ± 0.10 % Dose/organ
- Thyroid uptake ([1]; 60 min): 0.05 ± 0.002 % Dose/organ
- Blood uptake (blood assumed 7% of body weight) ([1]; 120 min): 2.16 ± 0.21 % Dose/organ
- Brain uptake ([1]; 120 min): 0.16 ± 0.03 % Dose/organ
- Heart uptake ([1]; 120 min): 0.24 ± 0.06 % Dose/organ
- Kidney uptake ([1]; 120 min): 0.97 ± 0.13 % Dose/organ
- Liver uptake ([1]; 120 min): 6.71 ± 0.84 % Dose/organ
- Lung uptake ([1]; 120 min): 0.78 ± 0.43 % Dose/organ
- Muscle uptake (muscle assumed 40% of body weight) ([1]; 120 min): 15.4 ± 4.17 % Dose/organ
- Skin uptake ([1]; 120 min): 7.05 ± 1.52 % Dose/organ
- Spleen uptake ([1]; 120 min): 0.20 ± 0.06 % Dose/organ
- Thyroid uptake ([1]; 120 min): 0.08 ± 0.05 % Dose/organ
- Blood uptake (blood assumed 7% of body weight) ([1]; 240 min): 1.82 ± 0.26 % Dose/organ
- Brain uptake ([1]; 240 min): 0.13 ± 0.04 % Dose/organ
- Heart uptake ([1]; 240 min): 0.18 ± 0.03 % Dose/organ
- Kidney uptake ([1]; 240 min): 0.73 ± 0.13 % Dose/organ
- Liver uptake ([1]; 240 min): 4.57 ± 0.69 % Dose/organ
- Lung uptake ([1]; 240 min): 0.54 ± 0.09 % Dose/organ
- Muscle uptake (muscle assumed 40% of body weight) ([1]; 240 min): 11.24 ± 2.57 % Dose/organ
- Skin uptake ([1]; 240 min): 4.21 ± 0.25 % Dose/organ
- Spleen uptake ([1]; 240 min): 0.18 ± 0.02 % Dose/organ
- Thyroid uptake ([1]; 240 min): 0.15 ± 0.18 % Dose/organ
- Blood uptake (blood assumed 7% of body weight) ([1]; 6 hr, 2 rats only): 1.58 ± 0.15 % Dose/organ
- Brain uptake ([1]; 6 hr, 2 rats only): 0.05 ± 0.001 % Dose/organ
- Heart uptake ([1]; 6 hr, 2 rats only): 0.11 ± 0.01 % Dose/organ
- Kidney uptake ([1]; 6 hr, 2 rats only): 0.45 ± 0.03 % Dose/organ
- Liver uptake ([1]; 6 hr, 2 rats only): 3.21 ± 0.28 % Dose/organ
- Lung uptake ([1]; 6 hr, 2 rats only): 0.36 % Dose/organ
- Muscle uptake (muscle assumed 40% of body weight) ([1]; 6 hr, 2 rats only): 6.94 ± 0.93 % Dose/organ
- Skin uptake ([1]; 6 hr, 2 rats only): 4.15 ± 0.63 % Dose/organ
- Spleen uptake ([1]; 6 hr, 2 rats only): 0.11 ± 0.004 % Dose/organ
- Thyroid uptake ([1]; 6 hr, 2 rats only): 0.42 ± 0.15 % Dose/organ
- Blood uptake (blood assumed 7% of body weight) ([1]; 16 hr): 0.42 ± 0.07 % Dose/organ
- Brain uptake ([1]; 16 hr): 0.008 ± 0.001 % Dose/organ
- Heart uptake ([1]; 16 hr): 0.02 ± 0.003 % Dose/organ
- Kidney uptake ([1]; 16 hr): 0.12 ± 0.015 % Dose/organ
- Liver uptake ([1]; 16 hr): 1.32 ± 0.096 % Dose/organ
- Lung uptake ([1]; 16 hr): 0.07 ± 0.006 % Dose/organ
- Muscle uptake (muscle assumed 40% of body weight) ([1]; 16 hr): 1.49 ± 0.23 % Dose/organ
- Skin uptake ([1]; 16 hr): 2.04 ± 0.18 % Dose/organ
- Spleen uptake ([1]; 16 hr): 0.02 ± 0.002 % Dose/organ
- Thyroid uptake ([1]; 16 hr): 0.009 ± 0.004 % Dose/organ
- Regional distribution / selectivity in rat brain (in words) ([2]; listed as [^123 I]-2b): did not exhibit any selectivity
- Regional distribution / selectivity in rat brain (in words) ([2]; listed as [^123 I]I-TBZ (2b)): exhibits no regional selectivity
- Regional brain uptake, cerebellum ([2]; 60 min): 0.14 ± 0.04 % Dose/g
- Regional brain uptake, cortex ([2]; 60 min): 0.14 ± 0.04 % Dose/g
- Regional brain uptake, hippocampus ([2]; 60 min): 0.14 ± 0.02 % Dose/g
- Regional brain uptake, striatum ([2]; 60 min): 0.15 ± 0.03 % Dose/g
- Regional brain uptake, cerebellum ([2]; 120 min): 0.14 ± 0.003 % Dose/g
- Regional brain uptake, cortex ([2]; 120 min): 0.15 ± 0.09 % Dose/g
- Regional brain uptake, hippocampus ([2]; 120 min): 0.12 ± 0.04 % Dose/g
- Regional brain uptake, striatum ([2]; 120 min): 0.12 ± 0.04 % Dose/g
- tissue uptake at 2 min [2, 7]: 0.5 ± 0.13 %ID/g
- tissue uptake at 0.5 h [2, 7]: 0.17 ± 0.03 %ID/g
- tissue uptake at 4 h [2, 7]: 0.051 ± 0.014 %ID/g
- tissue uptake at 6 h [2, 7]: 0.025 ± 0.0002 %ID/g
- tissue uptake at 16 h [2, 7]: 0.0063 ± 0.001 %ID/g
- tissue uptake at 2 min [2, 8]: 0.55 ± 0.24 %ID/g
- tissue uptake at 0.5 h [2, 8]: 0.2 ± 0.02 %ID/g
- tissue uptake at 4 h [2, 8]: 0.052 ± 0.021 %ID/g
- tissue uptake at 6 h [2, 8]: 0.022 %ID/g
- tissue uptake at 16 h [2, 8]: 0.0061 ± 0.0013 %ID/g
- tissue uptake at 2 min [2, 9]: 0.58 ± 0.16 %ID/g
- tissue uptake at 0.5 h [2, 9]: 0.21 ± 0.02 %ID/g
- tissue uptake at 4 h [2, 9]: 0.048 ± 0.015 %ID/g
- tissue uptake at 6 h [2, 9]: 0.028 ± 0.0064 %ID/g
- tissue uptake at 16 h [2, 9]: 0.0051 ± 0.002 %ID/g
- tissue uptake at 2 min [2, 10]: 0.54 ± 0.21 %ID/g
- tissue uptake at 0.5 h [2, 10]: 0.21 ± 0.006 %ID/g
- tissue uptake at 4 h [2, 10]: 0.056 ± 0.014 %ID/g
- tissue uptake at 6 h [2, 10]: 0.024 ± 0.0029 %ID/g
- tissue uptake at 16 h [2, 10]: 0.0062 ± 0.0026 %ID/g
- Stable at room temperature for up to [3]: up to 15 h

SMILES: COC(=O)[C@H]1[C@H]2C[C@@H]3c4[nH]c5cc(OC)ccc5c4CCN3C[C@H]2C[C@@H](OC(=O)c2cc(OC)c(OC)c(OC)c2)[C@@H]1OC [Reserpine]
- Irreversible damage to storage mechanism / neurons (in words) [4]: the storage mechanism is irreversibly damaged

SMILES: COc1cc2c(cc1OC)C1CC(=O)C(CC(C)C)CN1CC2 (stereo not shown) [TBZ, 3-(2-methylpropyl)-9,10-dimethoxy-1,3,4,6,7,11b-hexahydro-2H-benzo[a]quinolizin-2-one]
- Duration of depletion of catecholamines and serotonin in the brain (in words) [4]: shorter duration
- Irreversible damage to storage mechanism / neurons (in words) [4]: do not cause irreversible damage to neurons
- Effect on tardive dyskinesia in patients (in words) [5]: improved tardive dyskinesia

SMILES: COc1cc2c(cc1OC)C1CC(OC(C)=O)C(CC(C)C)CN1CC2 (stereo not shown) [acetyl derivative of dihydro-TBZ]
- binding affinity for the transporter (in words) [6]: retain high affinity
